{"source": "patent US7208469B2", "about": "“Therapeutic method” (Auckland UniServices Limited, priority 1997, dated 2007)", "key": {"[1]": {"test_system": "tibiae of normal adult male mice", "assay": "In vivo study: daily subcutaneous injection in mice, tibial growth plate width and tibial length", "details": "male Swiss mice, 300 ug/kg/injection s.c., 5 days/week for 4 weeks; for tibial (epiphyseal) growth plate width: mean±sem, controls 0.081-0.094 mm", "description": "Two groups of 20 sexually mature male Swiss mice aged between 40 and 50 days and weighing 25–32 g, were given daily subcutaneous injections (50 ul) in the loose skin at the nape of the neck for 5 days/week over 4 consecutive weeks. The treated group was injected with peptide at a dose of 300 ug/kg/injection and the control group was injected with vehicle (water). Animals were housed in a room maintained at 20° C. on 12-hour light/dark cycles. They were fed diet 86 rodent pellets (New Zealand Stockfeed Ltd) ad libitum throughout the experiment. Each animal's weight was recorded at the beginning and end of the experiment. One day after the last injection, animals were sacrificed by cervical dislocation. They study had the approval of the local institutional review board.\nThe tibiae were dissected free of adherent tissue. Tibial lengths were recorded by measuring the distance between the proximal epiphysis and the distal tibio-fibular junction using an electronic micrometer (Digimatic Calipers, Mitutoyo, Japan). Bones were placed in 10% phosphate-buffered formalin for 24 hours and then dehydrated in a graded series of ethanol solutions and embedded, undecalcified, in methylmethacrylate resin. Tibiae were sectioned longitudinally through the frontal plane and calvariae were cut cross-sectionally at the base of the parietal bone. All sections were 4 um think and were cut on a Leitz microtome using a tungsten-carbide knife (Microknife Sharpening, Utah, USA). Sections were mounted on gelatin-coated slides and air-dried. They were stained with Goldner's tri-chrome and examined using an Olympus BX 50 microscope (Olympus Optical Co Ltd, Tokyo, Japan) which was attached to an Osteomeasure Image Analyzer (Osteometrics Inc. Atlanta, Ga.).\nTibial histomorphometric analyses were made from three adjacent sections one third of the way through the anterior/posterior depth of the proximal tibiae. Epiphyseal growth plate thickness was measured at three sites evenly spaced along its length. All measurements were made by one operator who was blinded to the treatment group of each bone."}, "chondrocytes [2]": {"test_system": "chondrocytes", "assay": "Chondrocytes 3-dimensional cell cultures in alginate beads: proliferation (cell counts and 3H-thymidine incorporation)", "type": "cell-based, dog", "description": "Alginate head cultures were established as described by Guo, et al. Culture and growth characteristics of chondrocytes encapsulated in alginated beads. Connective Tissue Research 19:277–297 (1989). Briefly the cells were suspended in a solution of 1.25% (wt/vol) alginate in HEPES (20 mM HEPES buffer pH neutral) at a density of 2×10^6 cells/ml> The suspension of chondrocytes were slowly extruded through a 22-gauge needle in a dropwise manner into 40 ml of 0.1 M CaCl2 solution. After instantaneous gelation, the beads were allowed to further polymerise in CaCl2 solution (10 mins, room temperature). The beads were washed sequentially, twice in 0.15 M NaCl and twice in Dulbecco's modified Eagle's medium (DME). After the washing procedure, the beads were placed into 24-well culture plates (10 beads/well) and fed with 1 ml 10% fetal calf serum (FCS) SMW with 5μg/ml ascorbic acid. The cultures were maintained at 37° C. in a humidified atmosphere of 5% CO2 in air. The medium was changed every second day. […] Cell numbers were analysed at day 8 by exposing alginate beads to 50 mM ethylenediaminetetraacetic acid (EDTA) for approximately 10 minutes at 37° C. […] Tritiated-thymidine incorporation (^3H-thymidine) was assessed by pulsing the beads with ^3H-thymidine (1μCi/well) 48 hours before the end of experimental incubation. […] Pellets were resuspended and counted for radioactivity."}, "chondrocytes [3]": {"test_system": "chondrocytes", "assay": "Chondrocyte monolayer cell cultures: proliferation (cell counts and [3H]-thymidine incorporation)", "type": "cell-based, dog", "details": "24 hours", "description": "Fresh cartilage samples were collected from the tibial plateaus and femoral condyles of mature, healthy crossbred dogs (2–4 years; 20–25 kg). The chondrocytes were isolated as previously described (Connective Tissue Research 1988; 18:205–222). Briefly, the chondrocytes were obtained by pronase and collagenase digestion of the cartilage, then the cells were centrifuged, washed and resuspended in media before being cultured in 75 cm^2 tissue culture flasks. The cells were incubated under 5% CO2 and 95% air at 37° C. Confluence was reached by 7–10 days, at which time the cells were subcultured. After trypsinization, the cells are rinsed and resuspended in fresh medium, then seeded at 5×10^4 cells/ml in 24-well plates (0.5 ml cell suspension per well, ie. 1.4×10^4 cells/cm^2). Proliferation studies (cell counts and thymidine incorporation) were performed. Subconfluent population were changed to serum-free medium with 0.1% bovine serum albumin plus the experimental compounds. Cell numbers were analysed at 24 hours after addition of the peptide or vehicle. The cell numbers were determined using a haemocytometer chamber. Results were expressed per well. [^3H]-thymidine incorporation was assessed by pulsing the cells with [^3H]-thymidine (1 uCi/well) two hours before the end of the experimental incubation. The experiment was terminated at 24 hours by washing the cells in media containing cold thymidine followed by the addition of 10% tricholoroacetic acid. The precipitate was washed twice with ethanol:ether (3:1) and the wells desiccated at room temperature. The residue was redissolved in 2 M KOH at 55° C. for 30 mins, neutralised with 1 M HCl, and an aliquot counted for radioactivity. Results were expressed as dpm per well. For both cell counts and thymidine incorporation, each experiment was performed at least 4 different times using experimental groups consisting of at least 6 wells."}}, "note": "Positions of bridges follow the written chain, without caps; N, C: chain ends. No end group written: not given here."}
{"substance": "Adrenomedullin-(27–52) (AHQIYQFTDKDKDNVAPRSKISPQGY; listed as Homo sapiens)", "values": [{"measurement": "tibial (epiphyseal) growth plate width", "setting": "[1]", "value": 0.11, "unit": "mm"}]}
{"substance": "Amylin (KCNTATCATQRLANFLVHSSNNFGAILSSTNVGSNTY; listed as Rattus norvegicus) [rat amylin sourced from Bachem California]", "values": [{"measurement": "tibial (epiphyseal) growth plate width", "setting": "[1]", "value": "0.108±0.003", "unit": "mm"}, {"measurement": "total length of the tibiae", "setting": "[1]; control 11.31±0.07", "value": "11.67±0.09", "unit": "mm"}, {"measurement": "thymidine incorporation (DNA synthesis)", "setting": "chondrocytes [2]; day 8, peptide 10^−10M, control 1135±85, p<0.001", "value": "2584±229", "unit": "dpm"}, {"measurement": "cell numbers", "setting": "chondrocytes [2]; day 8, per well, peptide 10^−10M, control 5.58±0.16, p<0.03", "value": "6.07±0.05 ×10^4"}, {"measurement": "thymidine incorporation (DNA synthesis)", "setting": "chondrocytes [3]; per well, amylin concentration not given, control 20725±997", "value": "25937±1203", "unit": "dpm"}, {"measurement": "cell numbers", "setting": "chondrocytes [3]; per well, mean±sem, amylin concentration not given, control 4.12±0.23, p=0.01", "value": "5.11±0.21 ×10^4"}]}
{"substance": "Adrenomedullin (YRQSMNNFQGLRSFGCRFGTCTVQKLAHQIYQFTDKDKDNVAPRSKISPQGY-NH2; disulfide 16-21 (inferred); ends not checked; UniProt P35318 95-146, looked up) [52-amino acid peptide first described by Kitamura et al; synthesized by solid-phase procedures]", "values": [{"measurement": "cell numbers", "setting": "chondrocytes [3]; peptide 10^−9M, control 1.79±0.07, p<0.01", "value": "2.27±0.12 ×10^4"}]}
{"substance": "Amylin-(1–8) (KCNTATCA-NH2; disulfide 2-7 (inferred); listed as Rattus norvegicus)", "values": [{"measurement": "tibial (epiphyseal) growth plate width", "setting": "[1]", "value": 0.111, "unit": "mm"}, {"measurement": "cell numbers", "setting": "chondrocytes [3]; peptide 10–8M, control 3.23±0.11, p=0.02", "value": "3.63±0.09 ×10^4"}, {"measurement": "thymidine incorporation (DNA synthesis)", "setting": "chondrocytes [3]; peptide 10–8M, control 26859±423, p=0.02", "value": "28932±628", "unit": "dpm"}]}
